# Experimental data: US10308682B2, “Inhibition of tumor growth with aggregates of small molecules” (BRANDEIS UNIVERSITY, priority 2013, dated 2019)
# Assays:
# HeLa cells = assay: Cell viability assay (MTT), HeLa cells; format: cell-based
# Protocol: Cells in exponential growth phase were seeded in a 96 well plate at a concentration of 50,000 cell/well. The cells were allowed to attach to the wells for 24 h at 37° C., 5% CO2, then the culture medium was removed and 100 μL new culture medium containing 1 at gradient concentrations was placed into each well. After culturing at 37° C., 5% CO2 for desired time, each well was added by 10 μL of 5 mg/mL MTT 43-(4,5-Dimethylthiazol-2-yl)-2,5-diphenyltetrazolium bromide), and the plated cells were incubate at dark for 4 h. 100 μL 10% SDS with 0.01 M HCl was added to each well to stop the reduction reaction and to dissolve the purple. After incubation of the cells at 37° C. for overnight, the viability is measured. Data represent the mean±standard deviation of three independent experiments.
# The estimation of the threshold concentration of aggregation (320-340 μM) for 1 allows us to examine the cytotoxicity of 1 in monomer and molecular aggregate forms. We first tested the cytotoxicity of 1 towards HeLa cells, the most widely studied cancer cell line, below and above the threshold concentration.
# [1] = Self-assembly: gelation and aggregation ability; format: physicochemical
# Source text: FIG. 22 depicts the characteristics and cytotoxicity of a structural analog of 1.
# Another often overlooked feature of amyloid oligomers is that their cytotoxicity is independent of chirality of the amino acids.
# [2] = cited from earlier work
Compound,"cytotoxicity (MTT, HeLa cells) compared with 1 (HeLa cells)",gelation ability compared with 1 [1],IC50 (cytotoxicity of aberrant protein aggregates) [2]
O=C(Cc1ccc2ccccc2c1)N[C@@H](Cc1ccc(O)cc1)C(=O)N[C@@H](Cc1ccc(O)cc1)C(=O)O [Nap-YY],lower cytotoxicity than 1,poorer gelation ability,
transthyretin,,,200 µg/mL
